Experimental data as given in patent publication US8728508B2, “Hydrophilic coating and a method for the preparation thereof” (Coloplast A/S, priority 2002, dated 2014).
In brackets after ≈: the same amount, converted by molar mass. Counter-ions that a name gives are not always drawn.

How the values were obtained:
[1] = cited from earlier work
[2] = Hansen solubility parameter, cited from earlier work; for Delta D: dispersion; for Delta H: hydrogen bonding; for Delta P: polar
[3] = Vigorous finger rubbing under running water of UV cured coated polyurethane catheters (coating stable / lubricious); format: physicochemical
Procedure: The coating was applied to polyurethane catheters by dipping the catheters in the polymer solution at room temperature and withdrawing them at a speed of 21 mm/s. The catheters were dried for 30 minutes at 70° C. and then UV cured for 150 seconds at 40-50° C. The UV cured catheters were immediately rubbed vigorously between the fingers under running water in order to evaluate whether the coating was stable and lubricious. They were then stored in water for at least 72 hours, and vigorous finger rubbing under running water was repeated. The catheters were then scored “stable” and “lubricious” only if the coating was still stable and lubricious at this time.

[4] = 8.7% plasticiser, 5% PVP K-90, 82% ethanol, 4.35% NMP, polyurethane catheters, finger rubbing under running water after at least 72 hours storage in water
[5] = 10% triethyl citrate, 79.0% solvent, 5% NMP, 6% PVP K-90, finger rubbing after at least 72 hours storage in water

| SMILES | Solubility in water (g/L) [1] | Delta D [2] | Delta H [2] | Delta P [2] | Coating stable? [3, 4] | Coating stable? [3, 5] | Solubility in water [1] [mg/mL] |
| --- | --- | --- | --- | --- | --- | --- | --- |
| CS(C)(=O)=O [Dimethyl sulfone] | Miscible | 19 | 12.3 | 19.4 |  |  |  |
| CCOC(=O)CC(O)(CC(=O)OCC)C(=O)OCC [Triethyl citrate] |  |  |  |  | stable |  |  |
| CC(=O)N1CCOCC1 [N-Acetyl morpholine] | Miscible | 18.3 | 7.8 | 5.3 |  |  |  |
| CN(C)C=O [dimethyl formamide] |  |  |  |  |  | stable |  |
| CCO [Ethanol] |  |  |  |  |  | stable |  |
| CCOC(=O)CC(CC(=O)OCC)(OC(C)=O)C(=O)OCC [Acetyl triethyl citrate] |  | 16.6 | 8.6 | 3.5 | stable |  |  |
| OCC(O)CO [glycerol] |  |  |  |  | not stable |  |  |
| CC1=CC(=O)CC(C)(C)C1 [Isophorone] |  | 16.6 | 7.4 | 8.2 |  |  |  |
| c1ccc2ncccc2c1 [Quinoline] |  | 19.4 | 7.6 | 7 |  |  |  |
| CC(=O)OCC(CO)OC(C)=O (stereo not shown) [Glycerol diacetate] | Miscible | 16.4 | 14.2 | 8.9 | stable |  |  |
| CC1COC(=O)O1 (stereo not shown) [Propylene carbonate] |  | 20 | 4.1 | 18 |  |  | 190 (≈ 1860 mM) |
| C1COCO1 [1,3-dioxolane] |  |  |  |  |  | stable |  |
| COC(=O)c1ccccc1O [Methyl salicylate] |  | 16 | 12.3 | 8 |  |  |  |
| CC(=O)OCC(COC(C)=O)OC(C)=O [Glycerol triacetate] |  | 16.5 | 9.1 | 4.5 | stable |  | 71 |
| CCOP(=O)(OCC)OCC [Triethyl phosphate] |  | 16.7 | 9.2 | 11.4 |  |  |  |
